Measurements: publication PMC10605370 (Biomolecules, 2023)

Experiments:
other GRK isoforms = conditions: selectively inhibits the GRK2/3 subfamily; cited from earlier work
Human D2RL [1] = target: T1, Human D2RL (Homo sapiens, UniProt P14416); assay: GRK2-GFP recruitment BRET assay (D2R–GRK2 interactions); type: cell-based; set-up: expressed in transfected cells; host or cells: HEK293 (parental or GRK knockout lines); conditions: dose-dependent (Figure 3C)
Human D2RL [2] = target: T1, Human D2RL; assay: LYN BRET receptor internalization assay; type: cell-based; set-up: expressed in transfected cells; host or cells: HEK293 (parental or GRK knockout lines); conditions: dose-dependent; maximally effective concentration of 100 µM
Description: HEK293 cells were transiently transfected with the indicated D2R-Rluc8 (35 mm plate: 0.1 μg; 100 mm plate: 0.5 μg) and LYN-rGFP (35 mm plate: 1 μg; 100 mm plate: 5 μg) constructs and the indicated GRK construct (35 mm plate: 1 μg; 100 mm plate: 5 μg) or pcDNA control.

PO4-null D2R = PO4-null D2R (Rattus norvegicus, UniProt P61169); assay: β-arrestin2 recruitment BRET assay, PO4-null D2R; type: cell-based; conditions: dose-dependent (Figure 4D)
Chain of PO4-null D2R (P61169 whole entry): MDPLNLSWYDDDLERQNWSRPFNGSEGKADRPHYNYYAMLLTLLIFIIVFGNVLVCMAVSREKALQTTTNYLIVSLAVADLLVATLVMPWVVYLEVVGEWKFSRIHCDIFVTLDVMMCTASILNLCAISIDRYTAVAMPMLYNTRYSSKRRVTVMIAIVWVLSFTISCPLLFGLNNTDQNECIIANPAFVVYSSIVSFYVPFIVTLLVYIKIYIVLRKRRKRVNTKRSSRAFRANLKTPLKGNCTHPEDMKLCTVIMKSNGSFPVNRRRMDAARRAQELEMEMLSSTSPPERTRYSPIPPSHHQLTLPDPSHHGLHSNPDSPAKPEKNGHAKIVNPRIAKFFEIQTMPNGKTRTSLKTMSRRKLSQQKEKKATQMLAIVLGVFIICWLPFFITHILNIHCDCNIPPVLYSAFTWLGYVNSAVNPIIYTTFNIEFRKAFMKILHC

D2R–GRK2 interactions = tested on: D2R–GRK2 interactions; set-up: method as in Pack et al., 2018 [21]; conditions: similar BRET assay; ref Pack et al., 2018 [21]; cited from earlier work
Human D2RL [3] = target: T1, Human D2RL; assay: β-arrestin2 recruitment BRET assay; type: cell-based; conditions: dose-dependent; maximally effective concentrations (10–100 µM)
Human D2RL [4] = target: T1, Human D2RL; assay: Go heterotrimer activation BRET assay; type: cell-based; set-up: expressed in transfected cells; host or cells: HEK293 (parental or GRK knockout lines); conditions: Cmpd101 treatment of HEK293 cells
Description: HEK293 cells were transiently transfected with the Gαo1-Rluc8 (35 mm plate: 0.1 μg; 100 mm plate: 0.5 μg), Gβ1 (35 mm plate: 0.9 μg; 100 mm plate: 4.5 μg), and Gγ2-mVenus (35 mm plate: 1 μg; 100 mm plate: 5 μg) constructs and the indicated untagged D2R construct (35 mm plate: 1 μg; 100 mm plate: 5 μg). […] Cells were then plated in 96-well white solid bottom plates (Greiner, Monroe, NC, USA) and incubated at room temperature for 45 min.

[5] = target: phosphorylation-null (PO4-null) rat D2 dopamine receptor, long isoform, fused to Rluc8 (rat) (UniProt P61169); assay: FRET or BRET; GRK2 recruitment BRET in live HEK293 cells transfected with D2R-Rluc8 (donor) and GRK2-rGFP (acceptor), with or without compound 101; DPBS with 200 µM sodium metabisulphite, room temperature, 2 µM Prolume Purple; dopamine for 5 min
Chain of phosphorylation-null (PO4-null) rat D2 dopamine receptor, long isoform, fused to Rluc8 (rat) (P61169 whole entry, the tested form may be a part, canonical isoform): as the sequence (P61169 whole entry) above

[6] = target: phosphorylation-null (PO4-null) rat D2 dopamine receptor, long isoform, fused to Rluc8 (rat) (UniProt P61169)

T1 sequence (P14416 whole entry): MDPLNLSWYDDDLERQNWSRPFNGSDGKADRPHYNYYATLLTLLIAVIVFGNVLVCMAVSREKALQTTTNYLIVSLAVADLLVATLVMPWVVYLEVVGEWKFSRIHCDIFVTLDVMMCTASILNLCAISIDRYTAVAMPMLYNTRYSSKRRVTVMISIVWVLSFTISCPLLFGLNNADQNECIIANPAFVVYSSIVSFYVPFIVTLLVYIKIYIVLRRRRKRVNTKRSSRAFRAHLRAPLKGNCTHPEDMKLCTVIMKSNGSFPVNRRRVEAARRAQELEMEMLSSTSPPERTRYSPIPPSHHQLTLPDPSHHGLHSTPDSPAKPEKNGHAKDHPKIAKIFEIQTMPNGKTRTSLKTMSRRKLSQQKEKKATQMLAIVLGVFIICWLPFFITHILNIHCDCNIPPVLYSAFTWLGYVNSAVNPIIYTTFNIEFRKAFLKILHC
Chain of GRK2-rGFP (P25098 whole entry): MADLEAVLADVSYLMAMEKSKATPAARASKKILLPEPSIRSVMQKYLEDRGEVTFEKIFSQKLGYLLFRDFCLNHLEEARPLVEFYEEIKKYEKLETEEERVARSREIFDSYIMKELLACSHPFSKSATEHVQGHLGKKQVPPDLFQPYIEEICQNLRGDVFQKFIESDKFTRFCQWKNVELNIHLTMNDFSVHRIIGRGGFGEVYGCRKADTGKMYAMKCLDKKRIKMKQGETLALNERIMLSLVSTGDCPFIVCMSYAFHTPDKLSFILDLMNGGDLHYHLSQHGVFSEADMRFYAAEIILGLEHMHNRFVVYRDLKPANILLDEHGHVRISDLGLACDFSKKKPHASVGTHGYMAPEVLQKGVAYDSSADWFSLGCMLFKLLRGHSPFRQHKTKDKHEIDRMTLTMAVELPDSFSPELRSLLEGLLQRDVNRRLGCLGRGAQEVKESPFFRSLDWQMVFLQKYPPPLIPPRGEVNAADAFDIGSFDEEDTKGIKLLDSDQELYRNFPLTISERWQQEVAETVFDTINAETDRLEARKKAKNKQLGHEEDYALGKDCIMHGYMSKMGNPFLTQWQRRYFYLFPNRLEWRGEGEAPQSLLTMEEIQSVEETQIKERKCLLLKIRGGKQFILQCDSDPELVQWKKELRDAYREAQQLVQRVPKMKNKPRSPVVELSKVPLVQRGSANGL
Chain of β-arrestin2-mVenus (P32121 whole entry): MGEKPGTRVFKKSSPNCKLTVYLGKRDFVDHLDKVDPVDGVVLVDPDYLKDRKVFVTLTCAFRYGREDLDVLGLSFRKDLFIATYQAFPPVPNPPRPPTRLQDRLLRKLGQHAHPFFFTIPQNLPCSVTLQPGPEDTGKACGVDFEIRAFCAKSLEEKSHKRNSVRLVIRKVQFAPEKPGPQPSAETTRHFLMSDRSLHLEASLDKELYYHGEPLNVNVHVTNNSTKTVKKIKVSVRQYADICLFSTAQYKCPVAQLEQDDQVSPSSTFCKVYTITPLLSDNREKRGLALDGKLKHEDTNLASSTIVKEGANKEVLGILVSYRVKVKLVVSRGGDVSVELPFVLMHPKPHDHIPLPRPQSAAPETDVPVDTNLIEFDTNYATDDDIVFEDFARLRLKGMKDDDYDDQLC

Question: With `Cn1c(CNc2cccc(C(=O)NCc3ccccc3C(F)(F)F)c2)nnc1-c1ccncc1` [Cmpd101] as the compound, how does the “affinity for other GRK isoforms” value (other GRK isoforms) read?
Answer: lacks affinity

Question: What about the “inhibition of GRK2–D2R interactions” value (Human D2RL [1]) of the same compound?
Answer: unable to completely block

Question: And the “inhibition of dopamine-stimulated D2R internalization” value (Human D2RL [2])?
Answer: completely block

Question: And the “decrease of β-arrestin2 recruitment to the phospho-null D2R” value (PO4-null D2R)?
Answer: did not completely eliminate

Question: What about the “effect on D2R–GRK2 interactions” value (D2R–GRK2 interactions) of the same compound?
Answer: no effect

Question: And the “inhibition of dopamine-stimulated β-arrestin2 recruitment to the D2R” value (Human D2RL [3])?
Answer: unable to completely inhibit

Question: What about the “effect on D2R signaling through G proteins (Go activation BRET assay)” value (Human D2RL [4]) of the same compound?
Answer: does not alter

Question: Which Emax of dopamine-stimulated BRET (% of WT D2R) [5] does the source give for “GRK2-rGFP (from UniProt P25098 1-689) (enzyme)” here?
Answer: 102 % of WT D2R

Question: For “β-arrestin2-mVenus (from UniProt P32121 1-409) (natural protein)”, which dopamine-stimulated D2R internalization in HEK293 cells (LYN BRET), Emax as a percentage of WT D2R (β-arrestin not transfected in this assay) [6] is on record?
Answer: 100 % of WT D2R
